Ki and IC50 data for 11 molecules are collected here from patent US20230391796A1, “GLYCOSIDASE INHIBITORS AND USES THEREOF” (UNIVERSIDAD DE SEVILLA (US) -UNIVERSITY OF SEVILLE (US), priority 2020, published 2023).

Common to all, as to assay type: biochemical
Test [1] has as its target β-N-acetylglucosaminidase (from human placenta). Nature of the test: Inhibition assay against commercial β-N-acetylglucosaminidase (human placenta), p-nitrophenyl N-acetyl-β-D-glucosaminide substrate. Conditions: pH 5.5, 37° C.; average of three determinations ± s.e.m.; read-out: Human placenta Hex. As for the experimental part: (§1) Inhibition Assays Against Commercial β-N-acetylglucosaminidases
(§2) Inhibition constant (Ki) values were determined by spectrophotometrically measuring the residual hydrolytic activities of the glycosidases against p-nitrophenyl N-acetyl-β-D-glucosaminide. […] Each assay was performed in phosphate-citrate buffer and the reactions were initiated by addition of the enzyme to a solution of the substrate in the absence or presence of various inhibitor concentrations. The mixture was incubated for 10-30 min at 37° C. and the reaction was quenched by addition of 1 M Na2CO3. Reaction times were appropriate to obtain 10-20% conversion of the substrate in order to achieve linear rates. The absorbance of the resulting mixture was determined at 405 nm. Approximate values of Ki were determined using a fixed concentration of substrate (around the Km value for the different glycosidases) and various inhibitor concentrations. Full Ki determinations and enzyme inhibition mode were determined from the slope of Lineweaver-Burk plots and double reciprocal analysis using a Microsoft Office Excel 2007 program.

In test [2] the target is β-N-acetylglucosaminidase (from bovine kidney). The experiment in a line: Inhibition assay against commercial β-N-acetylglucosaminidase (bovine kidney), p-nitrophenyl N-acetyl-β-D-glucosaminide substrate. Conditions: pH 5.5, 37° C.; average of three determinations ± s.e.m.; NI = no inhibition detected at 200 μM; read-out: Bovine kidney Hex. As to the method:
as §1, §2

Test [3] addresses β-N-acetylglucosaminidase (from jack bean). Nature of the test: Inhibition assay against commercial β-N-acetylglucosaminidase (jack bean), p-nitrophenyl N-acetyl-β-D-glucosaminide substrate. Conditions: pH 5.5, 37° C.; average of three determinations ± s.e.m.; NI = no inhibition detected at 200 μM; read-out: Jack beans Hex. As for the experimental part:
as §1, §2

The target of test [4] is T1, Recombinant Human Hexosaminidase A (HexA) (Homo sapiens, UniProt P06865).
T1 construct: purchased R&D Systems 6237-GH-020
T1 sequence (P06865 89-529): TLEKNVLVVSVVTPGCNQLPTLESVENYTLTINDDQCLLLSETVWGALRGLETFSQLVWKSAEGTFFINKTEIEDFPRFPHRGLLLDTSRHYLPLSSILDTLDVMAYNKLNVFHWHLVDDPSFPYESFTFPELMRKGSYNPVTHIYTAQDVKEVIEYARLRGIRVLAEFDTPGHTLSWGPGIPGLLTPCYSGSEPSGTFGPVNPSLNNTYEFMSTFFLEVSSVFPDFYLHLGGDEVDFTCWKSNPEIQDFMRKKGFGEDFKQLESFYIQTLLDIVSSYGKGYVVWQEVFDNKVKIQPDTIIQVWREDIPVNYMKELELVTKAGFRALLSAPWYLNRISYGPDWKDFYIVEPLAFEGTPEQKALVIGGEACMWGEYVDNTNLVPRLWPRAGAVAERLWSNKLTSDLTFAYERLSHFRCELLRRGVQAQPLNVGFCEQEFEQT
Nature of the test: Inhibition assay against rhHexA, 4-methylumbelliferone-N-acetyl-β-D-glucosaminide fluorescence. Conditions: IC50 for lysosomal hHexA; NI = no inhibition detected at 200 μM. As to the method: Inhibition Assays Against rhHexA
Human Hexosaminidase A (HexA) enzyme, purchased from R&D Systems (cat# 6237-GH-020), were determined by measuring the fluorescent signal corresponding to the rate of hydrolytic activity against the commercially available artificial substrate, 4-Methylumbelliferone-N-acetyl-β-D-glucosaminide. HexA activity assays were performed in a buffer of 100 mM sodium citrate, 250 NaCl, pH 4.5 and 1.0 nM [HexA], then stopped after 20 minutes with a solution of 1.0 M Tris, pH 9.5 to enhance fluorescent signal. Preliminary experiments have shown that reaction rates are linear for 20 minutes after substrate addition, and that 1.0 M Tris at pH 9.5 is sufficient for stopping activity, as signal is stable after stopping. Inhibition assays were run in the presence or absence of various concentrations of inhibitors and at a fixed substrate concentration of 100 μM and 1% DMSO. First, inhibitor was serially diluted to the desired range of concentrations in 2% DMSO buffer. Next, 25 μL, of inhibitor solutions at various concentrations in 2% DMSO Buffer was added to 25 μL, of 4.0 nM enzyme and allowed to incubate at 25° C. for 5 minutes. 50 μL of 200 μM and 1% DMSO substrate was then added and allowed to react for 20 minutes. 100 μL of stop solution was added to reaction mixture, and immediately mixed and aliquoted in 45 μL triplicates to a CORNING 384 well black plate. Fluorescence signal was measured in a BioTek Neo 2 Plate reader set at excitation and emission wavelengths of 355 and 450 nm, respectively. % Activity was subsequently calculated for each inhibitor concentration against the fluorescence signal of uninhibited HexA. […]

The target in a further test is T2, hOGA (Homo sapiens, UniProt O60502).
T2 sequence (O60502 1-916): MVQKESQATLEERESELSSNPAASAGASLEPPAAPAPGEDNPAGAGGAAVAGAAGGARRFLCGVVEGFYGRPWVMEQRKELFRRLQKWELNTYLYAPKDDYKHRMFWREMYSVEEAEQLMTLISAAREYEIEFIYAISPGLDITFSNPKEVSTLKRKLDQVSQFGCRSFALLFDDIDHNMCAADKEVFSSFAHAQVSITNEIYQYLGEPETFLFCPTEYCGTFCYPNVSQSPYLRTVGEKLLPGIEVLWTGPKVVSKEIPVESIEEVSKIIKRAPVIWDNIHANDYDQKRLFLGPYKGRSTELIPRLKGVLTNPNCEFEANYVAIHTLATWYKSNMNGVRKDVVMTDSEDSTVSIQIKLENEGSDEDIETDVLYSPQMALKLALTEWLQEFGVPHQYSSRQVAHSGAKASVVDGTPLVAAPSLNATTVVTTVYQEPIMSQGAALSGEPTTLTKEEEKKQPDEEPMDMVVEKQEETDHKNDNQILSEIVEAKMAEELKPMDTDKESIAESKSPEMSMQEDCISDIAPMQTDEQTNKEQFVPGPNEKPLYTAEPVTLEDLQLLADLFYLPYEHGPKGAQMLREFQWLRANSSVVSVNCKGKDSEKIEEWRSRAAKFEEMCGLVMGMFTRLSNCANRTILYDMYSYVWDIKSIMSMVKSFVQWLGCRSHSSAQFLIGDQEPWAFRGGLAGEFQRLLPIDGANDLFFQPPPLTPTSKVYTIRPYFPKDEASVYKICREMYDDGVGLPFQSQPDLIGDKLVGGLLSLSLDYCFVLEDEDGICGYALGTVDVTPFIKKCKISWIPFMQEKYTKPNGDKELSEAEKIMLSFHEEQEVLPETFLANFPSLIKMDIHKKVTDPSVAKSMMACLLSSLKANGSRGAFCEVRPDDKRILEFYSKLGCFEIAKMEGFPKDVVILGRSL
Nature of the test: Inhibition assay against hOGA, resorufin N-acetyl-β-D-glucosaminide fluorescence. Conditions: 0.2 nM hOGA, 25 μM substrate, pH 7.1; Morrison Ki. As to the method:
Inhibition Assays Against hOGA
Km=25 μM was measured with these conditions. Inhibition assays were run at 0.2 nM [hOGA] in the same buffer, in the presence or absence of various concentrations of inhibitors and at a fixed substrate concentration of 25 μM and 1% DMSO. First, inhibitor was serially diluted to the desired range of concentrations in 2% DMSO buffer. Next, 50 μL of inhibitor solutions at various concentrations in 2% DMSO Buffer was added to 50 μL of 0.8 nM enzyme and allowed to incubate at 25° C. for 5 minutes. 100 uL of 50 μM and 1% DMSO substrate was then added and reaction mixture was immediately mixed and aliquoted in 45 μL triplicates to a CORNING 384 well black plate. Fluorescence signal was measured continuously for 20 minutes at 37° C. in a BioTek Neo 2 Plate reader set at excitation and emission wavelengths of 572 and 610 nm, respectively. Max reaction rates for all inhibitor concentrations were calculated within Gen5 BioTek reader software. % Activity was subsequently calculated for each inhibitor concentration against the max reaction rate of uninhibited hOGA. GraphPad Prism 2016 was used to approximate the Morrison Ki values for each inhibitor.

Each structure is given as a SMILES string. Where a name gives a salt, the structure may show the parent alone.

With `CCCCN=C1SCC2C(O)C(O)C(NC(C)=O)CN12` (stereo not drawn) [Compound 1, 2-Acetamido-5-N,6-S-(N′-butyliminomethylidene)-1,2-dideoxy-6-thionojirimycin Hydrochloride], the Ki turned out to be 240 ± 20 nM in test [1], 570 ± 40 nM in test [2], 850 ± 60 nM in test [3] and 24.1 nM on hOGA. The IC50 in test [4] amounted to 990 nM.
The matching figures for `CCCCCCCCN=C1SCC2C(O)C(O)C(NC(C)=O)CN12` (stereo not drawn) [Compound 2, 2-Acetamido-1,2-dideoxy-5-N,6-S-(N′-octyliminomethylidene)-6-thionojirimycin Hydrochloride]: 240 ± 20 nM, 190 ± 20 nM, 1300 ± 100 nM, 20.2 nM and 580 nM.
The like results for `CC(=O)N[C@H]1CN2/C(=N/c3ccccc3)SC[C@@H]2[C@@H](O)[C@@H]1O` [Compound 3, 2-Acetamido-1,2-dideoxy-5-N,6-S-(N′-phenyliminomethylidene)-6-thionojirimycin Hydrochloride] were, in that order, 580 ± 40 nM, 700 ± 50 nM, 2800 ± 200 nM, 399 nM and 410 nM.
Regarding `CC(=O)N[C@H]1CN2/C(=N/Cc3cccc4ccccc34)SC[C@@H]2[C@@H](O)[C@@H]1O` [Compound 5, 2-Acetamido-5-N,6-S-(N′-1-naphthylmethyliminomethylidene)-1,2-dideoxy-6-thionojirimycin Hydrochloride], the Ki in test [2] worked out at 890 ± 800 nM; in test [3], 2400 ± 200 nM; at hOGA, 0.292 nM.
As for `CC(=O)N[C@H]1CN2/C(=N/Cc3ccc(F)cc3)SC[C@@H]2[C@@H](O)[C@@H]1O` [Compound 6, 2-N-Acetyl-5-N,6-S-(N′-p-fluorobenzyliminomethylidene)-1,2-dideoxy-6-thionojirimycin Hydrochloride], the Ki amounted to 280 ± 20 nM in test [1], 1500 ± 200 nM in test [2], 3200 ± 300 nM in test [3] and 53.8 nM at hOGA.
The like results for `COc1ccc(C/N=C2\SC[C@@H]3[C@@H](O)[C@H](O)[C@@H](NC(C)=O)CN23)cc1` [Compound 7, 2-N-Acetyl-5-N,6-S-(N′-p-methoxybenzyliminomethylidene)-1,2-dideoxy-6-thionojirimycin Hydrochloride] were, in that order, 730 ± 40 nM, 1200 ± 100 nM, 2200 ± 100 nM and 27.8 nM.
The like results for `CC(=O)N[C@H]1CN2/C(=N/Cc3ccc(C(F)(F)F)cc3)SC[C@@H]2[C@@H](O)[C@@H]1O` [Compound 8, 2-Acetamido-5-N,6-S-(N′-p-trifluoromethylbenzyliminomethylidene)-1,2-dideoxy-6-thionojirimycin hydrochloride] were, in that order, 400 ± 30 nM, 430 ± 40 nM, 1500 ± 100 nM and 47.7 nM.
As for `CC(=O)N[C@H]1CN2/C(=N/Cc3ccccc3CN=[N+]=[N-])SC[C@@H]2[C@@H](O)[C@@H]1O` [Compound 9, 2-Acetamido-5-N,6-S-(N′-o-azidomethylbenzyliminomethylidene)-1,2-dideoxy-6-thionojirimycin Hydrochloride], the values for the Ki (in test [2]; in test [3]; on hOGA) were 910 ± 90 nM, 3070 ± 300 nM and 0.278 nM, respectively.
`CC(=O)N[C@H]1CN2/C(=N/Cc3cccc(CN=[N+]=[N-])c3)SC[C@@H]2[C@@H](O)[C@@H]1O` [Compound 10, 2-Acetamido-5-N,6-S-(N′-m-azidomethylbenzyliminomethylidene)-1,2-dideoxy-6-thionojirimycin Hydrochloride]: the Ki in test [2] was found to be 830 ± 60 nM; in test [3], 3130 ± 800 nM; at hOGA, 0.223 nM.
The like results for `CC(=O)N[C@H]1CN2/C(=N/Cc3ccc(CN=[N+]=[N-])cc3)SC[C@@H]2[C@@H](O)[C@@H]1O` [Compound 11, 2-Acetamido-5-N,6-S-(N′-p-azidomethylbenzyliminomethylidene)-1,2-dideoxy-6-thionojirimycin Hydrochloride] were, in that order, 720 ± 50 nM, 3400 ± 800 nM and 0.438 nM.
Consider `CC(=O)N[C@H]1CN2/C(=N/CCc3ccccc3)SC[C@@H]2[C@@H](O)[C@@H]1O` [Compound 12, 2-Acetamido-5-N,6-S-(N′-2-phenylethyliminomethylidene)-1,2-dideoxy-6-thionojirimycin Hydrochloride], for which the Ki in test [2] was 1420 ± 120 nM; in test [3] it was 2450 ± 320 nM; at hOGA it was 0.918 nM.

As a reminder, the IC50 is the concentration needed to halve the response being measured.
